Laboratory results from US9573972B2, “Nurotoxic sterol glycosides” (priority 2008, dated 2017).
“Also recorded” adds a separate entry of the source.

Assays:
[1] = Body weights of SG-fed mice; type: in vivo, mouse; conditions: SG-fed vs age-matched controls; SG 1000 μg per pellet daily for 15 weeks
Excerpt: Five-month old male CD-1 mice (30.1-35.7 g, 7.5 cm-8.8 cm) were purchased from Charles River (Wilmington, Mass.). Adult mice were chosen to mimic the mean age of onset of ALS-PDC (Kurland, L. T. (1988a) Trends Neurosci. 11, 51-4; Kurland, L. T., et al. (1994) Amyotrophic lateral sclerosis-parkinsonism-dementia complex on Guam: epidemiologic and etiological perspectives. 109-131). Thirty mice for the SG study were randomly divided into 2 groups (14 control and 16 experimental animals). All animals were housed singly in a virus-free barrier facility in a room maintained at 22° C. under a 12 hour light/dark cycle. The mice were provided ad libitum access to food and water.
The synthetic SG was mixed with finely ground Purina Chow mouse pellets (Mouse Diet™, Purina) to create the experimental pellets with a SG content of 1000 μg per pellet. Dry materials were blended with a sterile silicon spatula. For every 5 g of standard feed, 2.5 mL of doubly-distilled water (dd)H2O was added and the dough was kneaded and round up into pellets. A single sterol glucoside containing pellet was placed in the feeding tray each morning before the addition of regular mouse chow (ad libitum). All experimental pellets were entirely consumed by the mice each day. […] SG feeding was conducted daily for 15 weeks and mice were behaviorally monitored until sacrifice at 35 weeks (time point 1) or 52 weeks (time point 2).

[2] = test system: Tyrosine Hydroxylase (dopaminergic cells); assay: Tyrosine hydroxylase immunohistochemistry; type: in vivo, mouse; conditions: striatum, SG-fed, either time-point
Method: Labelling of dopaminergic neurons in brain sections was identified by antibodies for tyrosine hydroxylase (Morrow, C. E., Bandstra, et al., (2001) Neurotoxicol Teratol. 23, 533-44) and indirect immunoperoxidase staining. Sections were incubated in blocking serum for 2 hours then with the primary antibody (rabbit anti-tyrosine hydroxylase, 1:500, Affinity Bioreagents, Golden, Colo., USA) for 3 hours at RT. Sections were rinsed and incubated in biotinylated goat anti-rabbit IgG (1:100; Vector laboratories Inc., Burlingame, USA) for 30 minutes at RT, then visualized using the ABC method (Vectastain Elite ABC kit, Vector Laboratories Inc.).
The numbers of immunoreactive somata or inclusions were counted across the ventral horn of the spinal cord, across brain hemispheres, or per dorsal or ventral root with the 40× objective lens in a 600 μm/600 μm area within region perimeters defined by a mouse brain atlas (2001). For each animal, eight cross-sections per spinal cord or brain region were studied. An average of both the right and left ventral horn for each of the eight cross sections was generated giving a final averaged number for each animal in each of the spinal cord areas. […]

CC[C@H](/C=C/[C@@H](C)[C@H]1CC[C@H]2[C@@H]3CC=C4C[C@@H](O[C@@H]5O[C@H](CO)[C@@H](O)[C@H](O)[C@H]5O)CC[C@]4(C)[C@H]3CC[C@]12C)C(C)C [SG, Stigmasterol β-D-Glucopyranoside]
Body weights [1]: normal weight gain; also recorded: not significantly different
Decrease in tyrosine hydroxylase optical density in striata [2]: not significant
